From ChEMBL document CHEMBL1255515, “Design of a series of bicyclic HIV-1 integrase inhibitors. Part 2: azoles: effective metal chelators” (Bioorg Med Chem Lett, 2010)
pEC50, pIC50: −log10 of the molar value.

Target: Human immunodeficiency virus type 1 integrase (Human immunodeficiency virus 1, UniProt Q7ZJM1)
Assay: Inhibition of HIV-1 integrase-mediated 3'-processing and strand transfer activity
Conditions: not given

Human immunodeficiency virus type 1 integrase, sequence (Q7ZJM1 whole entry): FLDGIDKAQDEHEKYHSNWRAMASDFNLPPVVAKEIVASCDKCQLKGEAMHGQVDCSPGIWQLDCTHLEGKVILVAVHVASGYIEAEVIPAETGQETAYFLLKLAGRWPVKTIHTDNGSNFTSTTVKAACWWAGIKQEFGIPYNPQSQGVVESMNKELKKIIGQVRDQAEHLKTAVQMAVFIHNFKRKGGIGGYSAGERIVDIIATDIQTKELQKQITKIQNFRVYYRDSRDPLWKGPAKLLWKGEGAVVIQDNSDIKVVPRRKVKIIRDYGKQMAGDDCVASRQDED

Compound	pIC50
O=c1c(O)c(-c2ncc(Cc3ccc(F)cc3)s2)nc2c(N3CCCS3(=O)=O)cc(N3CCOCC3)cn12	7.44
O=c1c(O)c(-c2ncc(Cc3ccc(F)cc3)s2)nc2ccc(N3CCOCC3)cn12	7.70
O=c1c(O)c(-c2ncc(Cc3ccc(F)cc3)s2)nc2c(Br)cc(N3CCOCC3)cn12	7.38
O=C(NCc1ccc(F)cc1)c1nc2ccc(N3CCOCC3)cn2c(=O)c1O	6.11
O=c1c(O)c(-c2nnc(Cc3ccc(F)cc3)o2)nc2ccc(N3CCOCC3)cn12	6.51
O=c1c(O)c(-c2noc(Cc3ccc(F)cc3)n2)nc2ccc(N3CCOCC3)cn12	6.35
O=c1c(O)c(-c2nnc(Cc3ccc(F)cc3)s2)nc2ccc(N3CCOCC3)cn12	6.65
O=c1c(O)c(-c2nc(Cc3ccc(F)cc3)no2)nc2ccc(N3CCOCC3)cn12	< 5.00
O=c1c(O)c(-c2ncc(Cc3ccc(F)cc3)o2)nc2ccc(N3CCOCC3)cn12	7.23
O=c1c(O)c(-c2ncc(Cc3ccc(F)cc3)[nH]2)nc2ccc(N3CCOCC3)cn12	7.35
O=c1c(O)c(-c2ncc(Cc3ccc(F)cc3)o2)nc2c(I)cc(N3CCOCC3)cn12	6.77
O=c1c(O)c(-c2ncc(Cc3ccc(F)cc3)[nH]2)nc2c(N3CCCS3(=O)=O)cc(N3CCOCC3)cn12	7.02
CN1CCN(c2cc(N3CCOCC3)cn3c(=O)c(O)c(-c4ncc(Cc5ccc(F)cc5)[nH]4)nc23)S1(=O)=O	7.15
O=C1OCCN1c1cc(N2CCOCC2)cn2c(=O)c(O)c(-c3ncc(Cc4ccc(F)cc4)[nH]3)nc12	7.46
O=C1CCCN1c1cc(N2CCOCC2)cn2c(=O)c(O)c(-c3ncc(Cc4ccc(F)cc4)[nH]3)nc12	7.33

System: Human immunodeficiency virus 1
Assay: Antiviral activity against HIV1 by cell based luciferase assay
Format: functional, organism-based
Conditions: not given

Compound	pEC50
O=c1c(O)c(-c2ncc(Cc3ccc(F)cc3)s2)nc2c(N3CCCS3(=O)=O)cc(N3CCOCC3)cn12	7.94
O=c1c(O)c(-c2ncc(Cc3ccc(F)cc3)s2)nc2ccc(N3CCOCC3)cn12	7.49
O=c1c(O)c(-c2ncc(Cc3ccc(F)cc3)s2)nc2c(Br)cc(N3CCOCC3)cn12	7.85
O=C(NCc1ccc(F)cc1)c1nc2ccc(N3CCOCC3)cn2c(=O)c1O	6.67
O=c1c(O)c(-c2nnc(Cc3ccc(F)cc3)[nH]2)nc2ccc(N3CCOCC3)cn12	6.70
O=c1c(O)c(-c2nc(Cc3ccc(F)cc3)no2)nc2ccc(N3CCOCC3)cn12	< 6.00
O=c1c(O)c(-c2ncc(Cc3ccc(F)cc3)o2)nc2ccc(N3CCOCC3)cn12	7.67
O=c1c(O)c(-c2ncc(Cc3ccc(F)cc3)[nH]2)nc2ccc(N3CCOCC3)cn12	7.21
O=c1c(O)c(-c2ncc(Cc3ccc(F)cc3)o2)nc2c(I)cc(N3CCOCC3)cn12	8.05
O=c1c(O)c(-c2ncc(Cc3ccc(F)cc3)[nH]2)nc2c(Br)cc(N3CCOCC3)cn12	7.54
O=c1c(O)c(-c2ncc(Cc3ccc(F)cc3)o2)nc2c(N3CCCS3(=O)=O)cc(N3CCOCC3)cn12	< 6.00
O=c1c(O)c(-c2ncc(Cc3ccc(F)cc3)[nH]2)nc2c(N3CCCS3(=O)=O)cc(N3CCOCC3)cn12	< 6.00
CN1CCN(c2cc(N3CCOCC3)cn3c(=O)c(O)c(-c4ncc(Cc5ccc(F)cc5)[nH]4)nc23)S1(=O)=O	7.96
O=C1OCCN1c1cc(N2CCOCC2)cn2c(=O)c(O)c(-c3ncc(Cc4ccc(F)cc4)[nH]3)nc12	7.19
O=C1CCCN1c1cc(N2CCOCC2)cn2c(=O)c(O)c(-c3ncc(Cc4ccc(F)cc4)[nH]3)nc12	7.41
CCN(C(=O)C(=O)N(C)C)c1cc(N2CCOCC2)cn2c(=O)c(O)c(-c3ncc(Cc4ccc(F)cc4)[nH]3)nc12	7.07
CC(C)N1CCN(c2cc(N3CCOCC3)cn3c(=O)c(O)c(-c4ncc(Cc5ccc(F)cc5)[nH]4)nc23)C1=O	8.22

System: Human immunodeficiency virus 1
Assay: Antiviral activity against HIV1 by cell based luciferase assay in presence of 50% serum
Format: functional
Conditions: not given

Compound	fold change (FC)
CC(C)N1CCN(c2cc(N3CCOCC3)cn3c(=O)c(O)c(-c4ncc(Cc5ccc(F)cc5)[nH]4)nc23)C1=O	<3

System: Human immunodeficiency virus 1
Assay: Antiviral activity against HIV1 assessed as inhibition of viral replication after 6 days by cell based p24 antigen assay
Conditions: Human immunodeficiency virus 1, 144 h

Compound	pEC50
O=c1c(O)c(-c2ncc(Cc3ccc(F)cc3)s2)nc2ccc(N3CCOCC3)cn12	7.78
O=c1c(O)c(-c2ncc(Cc3ccc(F)cc3)s2)nc2c(Br)cc(N3CCOCC3)cn12	8.36
O=C(NCc1ccc(F)cc1)c1nc2ccc(N3CCOCC3)cn2c(=O)c1O	7.55
O=c1c(O)c(-c2nnc(Cc3ccc(F)cc3)o2)nc2ccc(N3CCOCC3)cn12	6.67
O=c1c(O)c(-c2noc(Cc3ccc(F)cc3)n2)nc2ccc(N3CCOCC3)cn12	7.00
O=c1c(O)c(-c2nnc(Cc3ccc(F)cc3)s2)nc2ccc(N3CCOCC3)cn12	7.85
O=c1c(O)c(-c2ncc(Cc3ccc(F)cc3)o2)nc2ccc(N3CCOCC3)cn12	8.22
O=c1c(O)c(-c2ncc(Cc3ccc(F)cc3)o2)nc2c(I)cc(N3CCOCC3)cn12	8.59
